Holding throughout (format): physicochemical
Series [1] can be described thus: Physical stability test of solid forms. As to the method:
Solid samples of Forms A1, B1 and C were incubated at three different conditions to test their physical stability: 80° C., closed vial, 24 hours; 60° C./29% RH, open vial, 48 hours; and 40° C./75% RH, open vial, 48 hours. The solids recovered after the stability studies were analyzed by HR-XRPD, TGMS and DSC.

A short description of series [2]: Solubility in biorelevant media (shake-flask). As to the method: The experiments were performed in triplicate. Approximately 30 mg of API were weighed in the 8 mL glass vials and an aliquot of media was added (see Table 14 for details). […] Upon completion of the equilibration time, the solids were separated from the liquid phases by centrifugation. The mother liquors were filtered using […] PTFE filters and injected at the HPLC to determine the API concentration in solution. The pH was recorded after 3 hours (1 hour for FaSSGF). The recovered ambient-dried solids were analyzed by HT-XRPD.

Series [3] in a line: Intrinsic dissolution rate determination in FaSSGF. Particulars: for IDR: FaSSGF pH 1.6, 37° C., interval 3-30 min (Form A1), 10-45 min (Form C); for API concentration in solution: FaSSGF, 37° C. As to the method: The intrinsic dissolution rate of Forms A1 and C was determined in FaSSGF. […] The pressure applied was approximately 40 bar for 2 minutes. The two tablets were placed in 30 mL vials and afterwards the FaSSGF solution pre-warmed at 37° C. […] After FaSSGF addition, stirring was started. The medium (20 mL) was added to vessels containing tablets of Forms A1 and C. The tablets were kept at 37° C. under continuous stirring. […] In the plot shown in FIG. 14, the % concentration of the API in solution is plotted against the time. The dissolution rate (Table 16) was calculated in the interval between 3 and 30 minutes for the experiment started with Form A1, and in the range 10-45 minutes for the experiment started with Form C.

Series [4] can be described thus: Dynamic Vapor Sorption (DVS) measurement. Particulars: for hygroscopic behavior: 40 to 95% RH.
Series [5] is described as follows: Variable Humidity XRPD (VH-XRPD). Particulars: 30° C., RH profile 40→87→0→60% (Form A1), 40→85→0→60% (Form C). The protocol:
The powder data were collected on D8 Advance diffractometer using Cu Kα1 radiation (1.54056 Å) with germanium monochromator at 30° C. using the SYCOS H-HOT hot humid chamber produced by Ansyco GmbH. The data were collected in the Bragg-Brentano geometry (locked coupled) from 8 to 35° 2θ on the flat sample holder (without rotation) on solid state LynxEye detector with 0.018° per step with 1 sec/step scan speed. After reaching demanded humidity the sample was relaxed for 5 minutes before measurement. The sample was optionally measured with 2 seconds per step and in the last measurement at RH 0% the relaxation time was elongated to 30 min.
Variable Humidity XRPD (VH-XRPD) measurements were performed on Forms A1 and C to investigate the in-situ phase changes induced by exposure to variable RH levels. Diffractograms of Form A1 were collected at 30° C. with a RH profile of 40→87→0→60% (FIG. 2). Initially, the pattern of Form A1 was distinguished at 40% RH. By increasing the RH level up to 87%, no changes in the XRPD pattern were detected. Furthermore, no changes were observed by lowering the RH from 87% down to 20%.

The nature of series [6]: Exposure to accelerated aging conditions (AAC). Particulars: 40° C./75% RH for 2 days. An excerpt: The polymorphic behavior of squalamine phosphate (ENT-01) and the physico-chemical properties of two hydrated phases were investigated. A squalamine tetrahydrate, designated Form A1, was identified. The squalamine polymorphism assessment and hydrate screen allowed identification of several squalamine crystalline phases. Among these phases, four squalamine hydrates (Forms B1, B2, C, D) and three mixed squalamine hydrates/solvates (Forms A2, E, F) were identified. All phases converted to squalamine Form A1 upon exposure to accelerated aging conditions (ACC) (2 days at 40° C./75% RH).
In the vacuum-dried solids, a novel pattern very similar to Form A1 but with shifted peaks was identified. This phase was designated Form A2 (see Table 2) and characterized by HT-XRPD. […] Form A2 was identified in several vacuum-dried solids recovered from the hydrate screen experiments.

[7] abbreviates: after 40° C./75% RH, open vial, 48 h (TGMS).
Where [8] appears, read: after 60° C./29% RH, open vial, 48 h (TGMS).
[9] abbreviates: after 80° C., closed vial, 24 h (TGMS).
Setting [10] is: FaSSGF (pH 1.6), 37° C., 1 hour.
The mark [11] stands for this setting: FaSSIF (pH 6.5), 37° C., 3 hours.
Where [12] appears, read: desorption, between 5 and 0% RH.
[13] abbreviates: desorption, between 25 and 5% RH.
Setting [14] is: first sorption cycle, between 45 and 95% RH.
Setting [15] is: last sorption cycle, between 25 and 45% RH.

“Also recorded” adds a separate entry of the source. Like-named read-outs stand apart in the source and are kept apart here.

Take `CC(C)[C@@H](CC[C@@H](C)[C@H]1CC[C@H]2[C@@H]3[C@H](O)C[C@H]4C[C@@H](NCCCNCCCCN)CC[C@]4(C)[C@H]3CC[C@]12C)OS(=O)(=O)O.O=P(O)(O)O` [Form B1, squalamine phosphate]: the “Solid Phase Composition” value in series [1] (40° C./75% RH, open vial, 48 h) is reported as “converted to Form A1”; in series [1] (60° C./29% RH, open vial, 48 h) it was “converted to Form A1; also recorded: converting to squalamine Form A1”; in series [1] (80° C., closed vial, 24 h), “physically stable”. Also, the results for the Mass loss in series [1] (setting [7]), in series [1] (setting [8]) and in series [1] (setting [9]) were 8.9%, 9.0% and 1.8%, respectively.

Consider `CC(C)[C@@H](CC[C@@H](C)[C@H]1CC[C@H]2[C@@H]3[C@H](O)C[C@H]4C[C@@H](NCCCNCCCCN)CC[C@]4(C)[C@H]3CC[C@]12C)OS(=O)(=O)O.O=P(O)(O)O` [Form A1, squalamine phosphate], for which the SOLUBILITY in series [2] (37 °C, pH 1.6, fassgf or other biorelevant, thermodynamic from solid, FaSSGF (pH 1.6), 1 hour, read-out: SOLUBILITY) was 9 mg/mL; in series [2] (37 °C, pH 5.1, fessif, thermodynamic from solid, FeSSIF (initial medium pH 5.1), 3 hours, read-out: SOLUBILITY), roughly 1 mg/mL; in series [2] (37 °C, pH 6.5, fassif, thermodynamic from solid, FaSSIF (pH 6.5), 3 hours, read-out: SOLUBILITY) it was less than 0.1 mg/mL; in series [2] (setting [10]), ~ 9 mg/mL; in series [2] (FaSSGF (pH 1.6), 37° C., 1 hour, listed as A1) it was 8.9 mg/mL; in series [2] (setting [11]), “practically insoluble”. In series [2] (FeSSIF (initial medium pH 5.1), 37° C., 3 hours, listed as Al), this compound showed an SOLUBILITY of 0.8 mg/mL. The IDR in series [3] is 0.049 mg/min/cm^2. Moreover, the entries for the “API concentration in solution” value in series [3] (after 45 minutes) and in series [3] (after 60 minutes) were roughly 20% and “above 30%”, respectively. For the same compound, the hygroscopic behavior result in series [4] is “slightly hygroscopic”. In addition, the “change in mass (water absorbed)” value in series [4] (between 35 to 65% RH) came out at 0.7%. Besides, the change in mass in series [4] (desorption, 95-55% RH) is listed as 0.9%; in series [4] (setting [12]), 5.3%; in series [4] (setting [13]), 1.7%; in series [4] (desorption, between 45 and 25% RH) it was 0.6%; in series [4] (desorption, between 55 and 45% RH), 1%; in series [4] (last sorption cycle, 0-25% RH) it was 7%. Further, the “change in mass (water vapor uptake)” value in series [4] (setting [14]) was found to be 2.1%; in series [4] (setting [15]) it was 0.6%. Also, in series [5], the “physical stability under variable RH levels” value is on record as “stable in the range 40→87→20% RH; also recorded: started to release water at RH levels below 20%”. Also, the “Solid Phase Composition” value in series [1] (40° C./75% RH, open vial, 48 h) was “physically stable”; in series [1] (60° C./29% RH, open vial, 48 h), “physically stable”; in series [1] (80° C., closed vial, 24 h), “physically stable”. The Mass loss is 9.2% in series [1] (setting [7]), 8.5% in series [1] (setting [8]) and 9.1% in series [1] (setting [9]).

Regarding `CC(C)[C@@H](CC[C@@H](C)[C@H]1CCC2C3C(CC[C@@]21C)[C@@]1(C)CC[C@H](NCCCNCCCCN)C[C@@H]1C[C@H]3O)OS(=O)(=O)O.O=P(O)(O)O` (stereo partly shown) [Form D, squalamine phosphate], in series [6], the “physical stability upon exposure to AAC” value is on record as “physically unstable”.

On to `CC(C)[C@@H](CC[C@@H](C)[C@H]1CC[C@H]2[C@@H]3[C@H](O)C[C@H]4C[C@@H](NCCCNCCCCN)CC[C@]4(C)[C@H]3CC[C@]12C)OS(=O)(=O)O.O=P(O)(O)O` [Form C, squalamine phosphate], for which the SOLUBILITY in series [2] (setting [10]) was 16.9 mg/mL; in series [2] (setting [11]), “practically insoluble”; in series [2] (FaSSIF (pH 6.5), 37° C., 3 hours, listed as C), less than 0.1 mg/mL; in series [2] (FeSSIF (initial medium pH 5.1), 37° C., 3 hours), roughly 1 mg/mL; in series [2] (FeSSIF (initial medium pH 5.1), 37° C., 3 hours, listed as C), 0.9 mg/mL. In series [3], the IDR amounted to 0.014 mg/min/cm^2. Also, the results for the “API concentration in solution” value in series [3] (after 45 minutes) and in series [3] (after 60 minutes) were “below 10%” and “above 20%”, respectively. Besides, the hygroscopic behavior result in series [4] is “slightly hygroscopic”. The change in mass in series [4] (setting [12]) is reported as 6%; in series [4] (setting [13]) it was 7.3%; in series [4] (last sorption cycle, 0-25% RH), 8.1%. For the same compound, the “change in mass (water vapor uptake)” value stood at 3.1% in series [4] (setting [14]) and 1.4% in series [4] (setting [15]). For the same compound, the “physical stability under variable RH levels” value in series [5] is “physically stable in the range 40→85→40% RH”. The “Solid Phase Composition” value in series [1] (40° C./75% RH, open vial, 48 h) is “physically stable”; in series [1] (60° C./29% RH, open vial, 48 h), “converted to Form A1”; in series [1] (80° C., closed vial, 24 h), “converted to Form A1”. In addition, the Mass loss in series [1] (setting [7]) is 12.6%; in series [1] (setting [8]), 8.7%; in series [1] (setting [9]), 8.8%.

These data come from patent publication US12686699B2, “Crystalline forms of squalamine” (priority 2020, dated 2026).
